# Experimental data published in US7893045B2, “Methods for treating lymphomas in certain patient populations and screening patients for said therapy” (Celgene Corporation, priority 2007, dated 2011).
# Key:
# [1] = system: aggressive NHL; assay: Study 1 and 2 taken together: response by predictive factors; assay type: in vivo, human
# [2] = system: aggressive NHL; assay: Clinical Study 2: lenalidomide monotherapy in aggressive NHL; assay type: in vivo, human
# Method: In a separate clinical study, 86 patients received at least 25 mg of lenalidomide once daily on Days 1-21 every 28 days and continued therapy as tolerated or until disease progression. Forty-eight of these patients were evaluable for response assessment (Table 3). The median age was 65 years. The most common histology was DLBCL (63%). The median time from diagnosis to lenalidomide treatment was 2 years. Patients received a median of 4 prior treatment regimens for NHL. Median time from last rituximab treatment was 297 days. […] Ninety-six percent of the patients had received prior rituximab.
# [3] = system: peripheral T-cell lymphomas (PTCL); assay: Clinical Study 3: Phase II lenalidomide for peripheral T-cell lymphomas; assay type: in vivo; details: about 25 mg orally daily for 21 days followed by 7 days of rest; ten patients
# Method: A multi-center, open label, phase II study was conducted to evaluate the efficacy of 3-(4-amino-1-oxo-1,3-dihydro-isoindol-2-yl)-piperidin-2,6-dione (lenalidomide) for peripheral T-cell lymphomas (PTCL). Patients with relapsed or refractory disease were eligible, as well as patients who had not previously had systemic therapy but who were ineligible for standard curative chemotherapy regimens due to comorbid illness. Each cycle (28 days) of treatment comprises administration of about 25 mg of 3-(4-amino-1-oxo-1,3-dihydro-isoindol-2-yl)-piperidin-2,6-dione (lenalidomide) given orally daily for 21 days followed by 7 days of rest, until disease progression, death or unacceptable toxicity.
# Ten (9 males and 1 female) patients were enrolled. Median age of participants was 56 years (range, 42-76 years). Histologies of the patients included PTCL unspecified (n=4), angioimmunoblastic T-cell lymphoma (n=4), anaplastic large cell lymphoma (n=1), and gamma/delta T-cell lymphoma (n=1). Median number of prior lines of systemic therapy was one (range, 0-3). Median number of cycles was two (range, 1-8).
# [4] = system: relapsed and refractory aggressive non-Hodgkin's lymphoma (NHL); assay: Clinical Study 1: Phase II oral lenalidomide monotherapy in relapsed and refractory aggressive NHL; assay type: in vivo, human; details: for Median progression-free survival: FIG. 1
# Method: A multi-center, open-label, Phase II study was conducted in patients with relapsed and refractory aggressive non-Hodgkin's lymphoma (NHL). The trial was designed for oral monotherapy with 3-(4-amino-1-oxo-1,3-dihydro-isoindol-2-yl)-piperidin-2,6-dione (Revlimid® or lenalidomide) in 49 patients with relapsed and refractory aggressive NHL following one or more prior treatment regimen with measurable disease. Patients in the study received lenalidomide in an amount of 25 mg orally once daily for days one to 21 in a 28-day cycle and continued therapy for 52 weeks as tolerated or until disease progression. A patient who achieved a complete response during the 52 week period was to receive two additional cycles of treatment prior to discontinuing treatment and entering the follow-up phase.
# The patients who had received a median of 4 prior treatments (range: 1-7 prior treatments), were administered with lenalidomide in an amount of 25 mg orally once daily for 21 days in the treatment cycle of 28 days. Of the 49 patients, 26 had diffuse large cell lymphoma, 15 had mantle cell lymphoma, five patients had follicular lymphoma, and three had transformed lymphoma. Median time from diagnosis was 2.7 years (range 0.4-32) and patients had received a median of 4 (range […]) prior drug regimens for NHL. Ninety-three percent of the patients had received prior rituximab and 63% of the patients were rituximab refractory.
# [5] = Study 1 and 2, time from rituximab <230 days, 40 patients
# [6] = Study 1 and 2, time from rituximab ≧230 days, 57 patients
# [7] = Study 1 and 2, tumor burden <50 cm^2, 66 patients
# [8] = Study 1 and 2, tumor burden ≧50 cm^2, 29 patients
# [9] = Aggressive NHL, 48 evaluable patients, at least 25 mg once daily Days 1-21 every 28 days
# [10] = Diffuse large B-cell, 30 patients
# [11] = Follicular center lymphoma grade 3, 1 patient
# [12] = Mantle cell lymphoma, 14 patients
# [13] = Transformed lymphoma, 3 patients
# [14] = Aggressive, n=49, 25 mg orally once daily days 1-21 of 28-day cycle
# [15] = DLBCL, n=26, 25 mg daily days 1-21 of 28
# [16] = FCL, n=5, 25 mg daily days 1-21 of 28
# [17] = MCL, n=15, 25 mg daily days 1-21 of 28
# [18] = TSF, n=3, 25 mg daily days 1-21 of 28
# [19] = of fourteen patients with SD at cycle 2
# [20] = the four rituximab naïve patients
smiles,measurement,setting,value
"Nc1cccc2c1CN(C1CCC(=O)NC1=O)C2=O (centres unmarked) [lenalidomide, 3-(4-amino-1-oxo-1,3-dihydro-isoindol-2-yl)-piperidine-2,6-dione]",Responders,"[1]; Study 1 and 2, Favorable = tumor burden <50 cm^2 and time since last rituximab ≧230 days, 43 patients",26
same,Response Rate (ORR),"[1]; Study 1 and 2, Favorable = tumor burden <50 cm^2 and time since last rituximab ≧230 days, N=43",60%
same,Responders,"[1]; Study 1 and 2, Unfavorable = tumor burden ≧50 cm^2 and/or time since last rituximab <230 days, 54 patients",4
same,Response Rate (ORR),"[1]; Study 1 and 2, Unfavorable = tumor burden ≧50 cm^2 and/or time since last rituximab <230 days, N=54",7.4%
same,Responders,[1]; [5],2
same,Response Rate,[1]; [5],5%
same,Responders,[1]; [6],28
same,Response Rate,[1]; [6],49%
same,Responders,[1]; [7],28
same,Response Rate,[1]; [7],42%
same,Responders,[1]; [8],2
same,Response Rate,[1]; [8],6.9%
same,duration of response,[1]; Study 1 and 2 taken together,approximately 6 months
same,Response Rate,"[1]; Study 1 and 2 taken together, all patients",31%
same,side effects,"[1]; Study 1 and 2 taken together, monotherapy in aggressive NHL",manageable hematological side effects
same,response to lenalidomide,[2]; <230 days from rituximab to lenalidomide treatment,5%
same,"ORR, overall response rate",[2]; [9],27%
same,"PD, progressive disease (patients)",[2]; [9],25
same,"PR, partial response (patients)",[2]; [9],12
same,"CR, complete response (patients)",[2]; [10],1
same,"ORR, overall response rate",[2]; [10],20%
same,"PD, progressive disease (patients)",[2]; [10],19
same,"PR, partial response (patients)",[2]; [10],5
same,"CR, complete response (patients)",[2]; [11],0
same,"ORR, overall response rate",[2]; [11],100%
same,"PD, progressive disease (patients)",[2]; [11],0
same,"PR, partial response (patients)",[2]; [11],1
same,"CR, complete response (patients)",[2]; [12],0
same,"ORR, overall response rate",[2]; [12],36%
same,"PD, progressive disease (patients)",[2]; [12],9
same,"PR, partial response (patients)",[2]; [12],5
same,"CR, complete response (patients)",[2]; [13],0
same,"ORR, overall response rate",[2]; [13],33%
same,"PD, progressive disease (patients)",[2]; [13],1
same,"PR, partial response (patients)",[2]; [13],1
same,ORR,[2]; favorable values for both tumor burden and time from rituximab (N=19),53%
same,response to lenalidomide,[2]; tumor burden <50 cm^2,33%
same,response to lenalidomide,[2]; tumor burden ≧50 cm^2,14%
same,ORR,[2]; unfavorable values (N=29),10%
same,response to lenalidomide,[2]; ≧230 days from rituximab to lenalidomide treatment,46%
same,efficacy in peripheral T-cell lymphomas,[3],effective in treating peripheral T-cell lymphomas
same,tolerability of therapy,[3],generally been well tolerated
same,response to lenalidomide,[4]; <230 days since last rituximab therapy,6%
same,response to lenalidomide,[4]; >=230 days since last rituximab therapy,52%
same,"CR, complete response (patients)",[4]; [14],2
same,"CRu, complete response unconfirmed (patients)",[4]; [14],4
same,"PD, progressive disease (patients)",[4]; [14],21
same,"PR, partial response (patients)",[4]; [14],11
same,"RR, response rate",[4]; [14],35%
same,"CR, complete response (patients)","[4]; DLBCL, diffuse large B-cell lymphoma, n=26, 25 mg daily days 1-21 of 28",1
same,"CRu, complete response unconfirmed (patients)",[4]; [15],2
same,"PD, progressive disease (patients)",[4]; [15],14
same,"PR, partial response (patients)",[4]; [15],2
same,"RR, response rate",[4]; [15],19%
same,"CR, complete response (patients)","[4]; FCL, follicular-center lymphoma, n=5, 25 mg daily days 1-21 of 28",0
same,"CRu, complete response unconfirmed (patients)",[4]; [16],1
same,"PD, progressive disease (patients)",[4]; [16],2
same,"PR, partial response (patients)",[4]; [16],2
same,"RR, response rate",[4]; [16],60%
same,"CR, complete response (patients)","[4]; MCL, mantle cell lymphoma, n=15, 25 mg daily days 1-21 of 28",1
same,"CRu, complete response unconfirmed (patients)",[4]; [17],1
same,"PD, progressive disease (patients)",[4]; [17],5
same,"PR, partial response (patients)",[4]; [17],6
same,"RR, response rate",[4]; [17],53%
same,"CRu, complete response unconfirmed (patients)",[4]; [18],0
same,"PD, progressive disease (patients)",[4]; [18],0
same,"PR, partial response (patients)",[4]; [18],1
same,"RR, response rate",[4]; [18],33%
same,"CR, complete response (patients)","[4]; TSF, transformed lymphoma, n=3, 25 mg daily days 1-21 of 28",0
same,response to lenalidomide,[4]; absolute lymphocyte count <=0.6×10^9/L,9%
same,response to lenalidomide,[4]; absolute lymphocyte count >0.6×10^9/L,42%
same,patients with initial PR at 2 cycles who went on to CR/CRu with continued treatment,[4]; continued treatment,four
same,Response Rate,"[4]; favorable values of disease burden, absolute lymphocyte count and time since last rituximab (n=23)",65%
same,patients with stable disease at the first (cycle 2) assessment,"[4]; first assessment, cycle 2",Fourteen
same,response to lenalidomide,[4]; largest tumor lesion <=4.5 cm,55%
same,response to lenalidomide,[4]; largest tumor lesion >4.5 cm,5%
same,patients with SD or PR at first assessment who improved their response with continued treatment,[4]; of 28 patients,seven
same,share of patients with SD or PR at first assessment who improved their response,[4]; of 28 patients,25%
same,patients with an objective response,[4]; of 49 patients,Seventeen
same,patients with SD at first assessment who went on to exhibit a response with continued treatment,[4]; [19],three
same,share of patients with SD at first assessment who went on to exhibit a response,[4]; [19],21%
same,response to lenalidomide,[4]; patients not refractory to rituximab,31%
same,response to lenalidomide,[4]; patients refractory to rituximab,30%
same,Median progression-free survival,[4]; patients with favorable prognostic values,7.5 months
same,Median progression-free survival,[4]; patients with poor prognostic factors,1.9 months
same,patients with CR,[4]; [20],two
same,patients with PR,[4]; [20],1
same,patients with SD,[4]; [20],1
same,response to lenalidomide,[4]; tumor burden <50 cm^2,52%
same,response to lenalidomide,[4]; tumor burden >=50 cm^2,0%
same,Response Rate,[4]; unfavorable values for these prognostic values (n=26),8%
same,Median progression-free survival,"[4]; whole group (all patients), Kaplan-Meier",3.7 months
